Assays:
Test in all cases: Test D
Format in all cases: in vivo
Conditions in all cases: PREEMERGENCE
[1] = tested on: annual bluegrass (Poa annua); parameters: key: 0 is no effect; 100 is complete control
[2] = tested on: black nightshade (Solanum nigra); parameters: key: 0 is no effect; 100 is complete control
[3] = tested on: chickweed (Stellaria media)
[4] = tested on: deadnettle (Lamium amplexicaule)
[5] = tested on: field violet (Viola arvensis); parameters: key: 0 is no effect; 100 is complete control
[6] = tested on: galium 2 (Galium aparine); parameters: key: 0 is no effect; 100 is complete control
[7] = tested on: Italian ryegrass (Lolium multiflorum)
[8] = tested on: rape (Brassica napus); parameters: key: 0 is no effect; 100 is complete control
[9] = tested on: Russian thistle (Salsola kali)
[10] = tested on: sugar beet (Beta vulgaris); parameters: key: 0 is no effect; 100 is complete control
[11] = tested on: sunflower (Helianthus annuus)
[12] = tested on: spring wheat (Triticum aestivum)
[13] = tested on: windgrass (Apera spica-venti); parameters: key: 0 is no effect; 100 is complete control
[14] = tested on: winter barley (Hordeum vulgare)

SMILES | Plant response rating, Annual bluegras ([1]; Rate 31 g/ha) | Plant response rating, Annual bluegras ([1]; Rate 62 g/ha) | Plant response rating, Blk nightshade ([2]; Rate 31 g/ha) | Plant response rating, Blk nightshade ([2]; Rate 62 g/ha) | Plant response rating, Chickweed ([3]; Rate 31 g/ha) | Plant response rating, Chickweed ([3]; Rate 62 g/ha) | Plant response rating, Deadnettle ([4]; Rate 31 g/ha) | Plant response rating, Deadnettle ([4]; Rate 62 g/ha) | Plant response rating, Field violet ([5]; Rate 31 g/ha) | Plant response rating, Field violet ([5]; Rate 62 g/ha) | Plant response rating, Galium ([6]; Rate 31 g/ha) | Plant response rating, Galium ([6]; Rate 62 g/ha) | Plant response rating, I. Ryegrass ([7]; Rate 31 g/ha) | Plant response rating, I. Ryegrass ([7]; Rate 62 g/ha) | Plant response rating, Rape ([8]; Rate 31 g/ha) | Plant response rating, Rape ([8]; Rate 62 g/ha) | Plant response rating, Russian thistle ([9]; Rate 31 g/ha) | Plant response rating, Russian thistle ([9]; Rate 62 g/ha) | Plant response rating, Sugar beet ([10]; Rate 31 g/ha) | Plant response rating, Sugar beet ([10]; Rate 62 g/ha) | further results
CCc1cnc(-n2ccc(C(F)(F)F)n2)nc1Cc1cccc(C(F)(F)F)c1 [Compound 46] | 60 | 90 | 50 | 50 | 70 | 70 | 90 | 90 | 85 | 100 | 60 | 60 | 60 | 60 | 50 | 100 | 30 | 30 | 70 | 100 | Plant response rating, Sunflower ([11]; Rate 31 g/ha): 10; Plant response rating, Sunflower ([11]; Rate 62 g/ha): 30; Plant response rating, Spring Wheat ([12]; Rate 31 g/ha): 30; Plant response rating, Spring Wheat ([12]; Rate 62 g/ha): 10; Plant response rating, Windgrass ([13]; Rate 31 g/ha): 40; Plant response rating, Windgrass ([13]; Rate 62 g/ha): 100; Plant response rating, Barley (winter) ([14]; Rate 31 g/ha): 50; Plant response rating, Barley (winter) ([14]; Rate 62 g/ha): 2
Cc1cnc(-n2cnc(C(F)(F)F)n2)nc1Cn1ccc(C(F)(F)F)n1 [Compound 51] | 85 | 100 | 100 | 95 | 80 | 90 | 80 | 80 | 65 | 65 | 100 | 100 | 60 | 90 | 100 | 100 | 60 | 70 | 100 | 100 | Plant response rating, Sunflower ([11]; Rate 31 g/ha): 40; Plant response rating, Sunflower ([11]; Rate 62 g/ha): 40; Plant response rating, Spring Wheat ([12]; Rate 31 g/ha): 60; Plant response rating, Spring Wheat ([12]; Rate 62 g/ha): 70; Plant response rating, Windgrass ([13]; Rate 31 g/ha): 100; Plant response rating, Windgrass ([13]; Rate 62 g/ha): 100; Plant response rating, Barley (winter) ([14]; Rate 31 g/ha): 50; Plant response rating, Barley (winter) ([14]; Rate 62 g/ha): 90

From patent publication US6525001B1, “Substituted pyrimidine and pyridine herbicides” (Mid-American Commercialization Corporation, priority 1997, dated 2003)
